In patent publication US20060289019A1, “Information method and system for generating data for optimizing a medical treatment, and equipment used in this system” (IPPM HOLDING SA, priority 2005, published 2006):

Key:
[1] = male, human, in vivo
Method: A patient suffering from schizo-affective disorder and from dual personality disorder reacts correctly to clozapine (clozaril, 600 mg/day, blood concentration: 502 ng/mL). They are also treated with lithium (eskalith, 900 mg/day). […] After 11 days the patient had to be admitted to the emergency department because they had too high a blood level of clozapine (2112 ng/mL).
Thus, the DEM will transfer the pharmacogenetic data from the DGSB. It will find, according to the pharmacokinetic data and studies on clozapine-fluvoxamine interaction, an appropriate function and the corresponding statistical values. […] The dosage of fluvoxamine is sought to be maintained constant. Still with reference to FIG. 3, the straight line which is of interest therefore, is that for which the blood level is 5 μM. […] The equation of this straight line (according to data taken from a publication) is y=3.7×/1.8 ? x=1.8y/3.7. Therefore if y=502 ng/mL then x=502*1.8/3.7=244 ng/mL. This means that the current dosage would need to be reduced by at least a half in order to avoid too great an interaction between the two products and especially to prevent a worrying blood level of clozapine in the blood. This optimization reasoning will be carried out by the OS as a function of the data which are sent to it by the DEM.

[2] = tested on: clozapine N-demethylation; settings: cited from earlier work

CN1CCN(C2=Nc3cc(Cl)ccc3Nc3ccccc32)CC1 [clozapine]
clozapine blood level x calculated from straight line x=1.8y/3.7 for y=502 ng/mL [1]: 244 ng/mL

COCCCC/C(=N\OCCN)c1ccc(C(F)(F)F)cc1 [fluvoxamine]
clozapine N-demethylation inhibitor strength [2]: strong
